Laboratory results from patent US20260355212A1 (priority 2022, published 2026).
Where two headings read alike, the source gives them in different places.

Assays:
[1] = molecular target: SARS-CoV-2 Mpro (Severe acute respiratory syndrome coronavirus 2, UniProt P0DTD1); assay: SARS-CoV-2 Mpro enzymatic inhibition assay (fluorescence); type: biochemical
Method in brief: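 A fluorescence readout (340 nm excitation, 490 nm emission) was taken after the substrate reaction ran 60 min at 30° C. Before substrate addition, E. coli-expressed protease and compound (3-fold dilutions, 10 doses, duplicates) sat together 30 min at room temperature. Percent inhibition was fitted by variable-slope nonlinear regression to give IC50.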

[2] = molecular target: HCoV-229E Mpro (Human coronavirus 229E, UniProt P0C6X1); assay: HCoV-229E Mpro enzymatic inhibition assay (fluorescence); type: biochemical
[3] = molecular target: HCoV-HKU1 Mpro (Human coronavirus HKU1, UniProt P0C6X2); assay: HCoV-HKU1 Mpro enzymatic inhibition assay (fluorescence); type: biochemical
Method in brief: (§1)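 E. coli-expressed Mpro was preincubated with 10-dose, 3-fold diluted compound for 30 min at room temperature before fluorogenic substrate was added. After 60 min at 30 °C, fluorescence was read at Ex/Em 340/490 nm. Inhibition % was normalized to DMSO and GC376 controls with no-enzyme background correction, and IC50 came from a four-parameter fit.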

[4] = molecular target: MERS Mpro (Middle East respiratory syndrome-related coronavirus, UniProt K9N7C7); assay: biochemical; parameters: species or system MERS-CoV
[5] = molecular target: HCoV-NL63 Mpro (Human coronavirus NL63, UniProt P0C6X5); assay: HCoV-NL63 Mpro enzymatic inhibition assay (fluorescence); type: biochemical
Method in brief: as §1

[6] = molecular target: HCoV-OC43 Mpro (Human coronavirus OC43, UniProt P0C6X6); assay: HCoV-OC43 Mpro enzymatic inhibition assay (fluorescence); type: biochemical
Method in brief: as §1

[7] = molecular target: SARS-CoV-1 Mpro (Severe acute respiratory syndrome coronavirus, UniProt P0C6X7); assay: biochemical

Sequence of HCoV-OC43 Mpro (P0C6X6 3247-3549 limits assumed): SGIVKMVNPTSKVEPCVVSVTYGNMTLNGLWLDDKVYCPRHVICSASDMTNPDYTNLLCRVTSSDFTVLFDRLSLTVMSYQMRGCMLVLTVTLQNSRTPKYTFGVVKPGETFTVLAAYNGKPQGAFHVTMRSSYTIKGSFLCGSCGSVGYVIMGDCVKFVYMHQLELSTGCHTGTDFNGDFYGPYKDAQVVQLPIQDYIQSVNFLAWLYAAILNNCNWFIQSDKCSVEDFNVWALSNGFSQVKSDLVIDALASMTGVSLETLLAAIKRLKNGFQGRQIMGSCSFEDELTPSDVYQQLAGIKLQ
Sequence of HCoV-229E Mpro (P0C6X1 2966-3267 limits assumed): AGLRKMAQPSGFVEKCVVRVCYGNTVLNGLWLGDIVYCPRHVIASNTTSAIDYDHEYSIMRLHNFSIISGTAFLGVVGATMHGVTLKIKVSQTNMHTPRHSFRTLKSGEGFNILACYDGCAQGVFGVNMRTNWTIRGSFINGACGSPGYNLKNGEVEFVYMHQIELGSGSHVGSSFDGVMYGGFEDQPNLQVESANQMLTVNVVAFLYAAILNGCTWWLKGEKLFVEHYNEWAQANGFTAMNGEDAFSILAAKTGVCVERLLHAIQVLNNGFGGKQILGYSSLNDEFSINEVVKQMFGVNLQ
Sequence of HCoV-NL63 Mpro (P0C6X5 2940-3242 limits assumed): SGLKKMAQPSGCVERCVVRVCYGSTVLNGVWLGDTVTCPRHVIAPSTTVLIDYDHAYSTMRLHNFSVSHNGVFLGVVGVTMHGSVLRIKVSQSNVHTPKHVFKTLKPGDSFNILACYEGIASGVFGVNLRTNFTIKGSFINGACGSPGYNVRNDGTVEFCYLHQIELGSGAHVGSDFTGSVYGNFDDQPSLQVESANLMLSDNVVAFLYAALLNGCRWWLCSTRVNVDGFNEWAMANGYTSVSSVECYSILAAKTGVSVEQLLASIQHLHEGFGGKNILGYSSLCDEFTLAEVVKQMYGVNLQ
Sequence of HCoV-HKU1 Mpro (P0C6X2 3335-3637 limits assumed): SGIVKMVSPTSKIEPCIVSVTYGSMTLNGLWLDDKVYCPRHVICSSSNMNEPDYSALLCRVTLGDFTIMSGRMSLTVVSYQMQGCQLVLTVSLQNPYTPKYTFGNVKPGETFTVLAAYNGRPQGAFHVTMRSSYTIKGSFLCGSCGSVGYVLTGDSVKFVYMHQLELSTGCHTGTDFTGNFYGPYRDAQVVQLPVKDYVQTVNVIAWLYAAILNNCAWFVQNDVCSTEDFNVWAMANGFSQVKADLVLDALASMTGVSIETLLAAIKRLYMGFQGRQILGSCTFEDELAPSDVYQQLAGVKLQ
Sequence of MERS Mpro (K9N7C7 3248-3553 limits assumed): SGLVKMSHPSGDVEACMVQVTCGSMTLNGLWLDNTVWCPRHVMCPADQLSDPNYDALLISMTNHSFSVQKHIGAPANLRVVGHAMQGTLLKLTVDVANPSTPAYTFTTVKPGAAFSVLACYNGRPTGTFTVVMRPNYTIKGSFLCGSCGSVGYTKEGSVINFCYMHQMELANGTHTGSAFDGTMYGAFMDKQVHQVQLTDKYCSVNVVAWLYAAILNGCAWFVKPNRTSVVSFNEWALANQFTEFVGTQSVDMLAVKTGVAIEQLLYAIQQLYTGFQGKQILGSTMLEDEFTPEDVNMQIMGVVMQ

Row | SMILES | IC50 [1] | IC50 [2] | IC50 [3] | IC50 [4] | IC50 [5] | IC50 [6] | IC50 [7] | IC50 ([1]; mean, 25 nM protein, 25 μM substrate, 30 min pre-incubation, 60 min at 30° C., read-out: Mpro_SARS-CoV-2 mean IC50)
1 | CC1(C)[C@@H]2[C@@H](C(=O)N[C@H](C=O)C[C@@H]3CCNC3=O)N(C(=O)c3cc4ccc(F)c(F)c4[nH]3)C[C@@H]21 [Compound 4, (1R,2S,5S)-3-(6,7-difluoro-1H-indole-2-carbonyl)-6,6-dimethyl-N—((S)-1-oxo-3-((S)-2-oxopyrrolidin-3-yl)propan-2-yl)-3-azabicyclo[3.1.0]hexane-2-carboxamide] | 10.2 nM | 28.5 nM | 26.8 nM | 198 nM | 34.4 nM | 40.8 nM | 23.6 nM | 
2 | Cc1ccc2cc(C(=O)N3C[C@H]4[C@@H]([C@H]3C(=O)N[C@H](C=O)C[C@@H]3CCNC3=O)C4(C)C)[nH]c2c1 [Compound 72, (1R,2S,5S)-6,6-Dimethyl-3-(6-methyl-1H-indole-2-carbonyl)-N—((S)-1-oxo-3-((S)-2-oxopyrrolidin-3-yl)propan-2-yl)-3-azabicyclo[3.1.0]hexane-2-carboxamide] | 31.3 nM | 30.1 nM | 20.8 nM | 346 nM | 21.7 nM | 49.4 nM | 58.9 nM | 
3 | COc1cccc2[nH]c(C(=O)N3C[C@H]4[C@@H]([C@H]3C(=O)N[C@H](C=O)C[C@@H]3CCNC3=O)C4(C)C)cc12 [Compound 65, (1R,2S,5S)-3-(4-Methoxy-1H-indole-2-carbonyl)-6,6-dimethyl-N—((S)-1-oxo-3-((S)-2-oxopyrrolidin-3-yl)propan-2-yl)-3-azabicyclo[3.1.0]hexane-2-carboxamide] |  | 38 nM | 21.1 nM | 320 nM | 24.1 nM | 25.2 nM | 33.1 nM | 27 nM
4 | CC(C)c1ccc(F)c2[nH]c(C(=O)N3C[C@H]4[C@@H]([C@H]3C(=O)N[C@H](C=O)C[C@@H]3CCNC3=O)C4(C)C)cc12 [Compound 39, (1R,2S,5S)-3-(7-fluoro-4-isopropyl-1H-indole-2-carbonyl)-6,6-dimethyl-N—((S)-1-oxo-3-((S)-2-oxopyrrolidin-3-yl)propan-2-yl)-3-azabicyclo[3.1.0]hexane-2-carboxamide] | 21.6 nM | 26.4 nM | 16 nM | 208 nM | 40 nM | 35.1 nM | 30 nM | 
5 | CC1(C)[C@@H]2[C@@H](C(=O)N[C@H](C=O)C[C@@H]3CCNC3=O)N(C(=O)c3cc4cc(Cl)ccc4[nH]3)C[C@@H]21 [Compound 89, (1R,2S,5S)-3-(5-Chloro-1H-indole-2-carbonyl)-6,6-dimethyl-N—((S)-1-oxo-3-((S)-2-oxopyrrolidin-3-yl)propan-2-yl)-3-azabicyclo[3.1.0]hexane-2-carboxamide] | 40.9 nM | 44.7 nM | 31 nM | 395 nM | 69.5 nM | 88.5 nM | 65.4 nM | 
6 | CC(C)c1ccc(F)c2[nH]c(C(=O)N3C[C@H]4[C@@H]([C@H]3C(=O)N[C@H](C#N)C[C@@H]3CCNC3=O)C4(C)C)cc12 [Compound 131, (1R,2S,5S)—N—((S)-1-Cyano-2-((S)-2-oxopyrrolidin-3-yl)ethyl)-3-(7-fluoro-4-isopropyl-1H-indole-2-carbonyl)-6,6-dimethyl-3-azabicyclo[3.1.0]hexane-2-carboxamide] | 401 nM | 690 nM | 1140 nM | 9760 nM | 1590 nM | 1540 nM | 772 nM | 
7 | COc1cc2cc(C(=O)N3C[C@H]4[C@@H]([C@H]3C(=O)N[C@H](C=O)C[C@@H]3CCNC3=O)C4(C)C)[nH]c2cc1OC [Compound 114, (1R,2S,5S)-3-(5,6-dimethoxy-1H-Indole-2-carbonyl)-6,6-dimethyl-N—((S)-1-oxo-3-((S)-2-oxopyrrolidin-3-yl)propan-2-yl)-3-azabicyclo[3.1.0]hexane-2-carboxamide] | 97.3 nM | 56.2 nM | 30.6 nM | 429 nM | 99.3 nM | 77.9 nM | 149 nM | 
8 | CC1(C)[C@@H]2[C@@H](C(=O)N[C@H](C=O)C[C@@H]3CCNC3=O)N(C(=O)c3cc4ncccc4[nH]3)C[C@@H]21 [Compound 83, (1R,2S,5S)-6,6-dimethyl-N—((S)-1-oxo-3-((S)-2-oxopyrrolidin-3-yl)propan-2-yl)-3-(1H-pyrrolo[3,2-b]pyridine-2-carbonyl)-3-azabicyclo[3.1.0]hexane-2-carboxamide] | 35.5 nM | 46.3 nM | 39 nM | 436 nM | 58.9 nM | 81.3 nM | 116 nM | 
9 | NC(=O)C(=O)[C@H](C[C@@H]1CCNC1=O)NC(=O)[C@@H]1CC2(CC2)CN1C(=O)c1cc2ccccc2[nH]1 [Compound 35, (S)—N—((S)-4-Amino-3,4-dioxo-1-((S)-2-oxopyrrolidin-3-yl)butan-2-yl)-5-(1H-indole-2-carbonyl)-5-azaspiro[2.4]heptane-6-carboxamide] | 20.3 nM | 37.4 nM | 11.4 nM | 179 nM | 48.5 nM | 64.4 nM | 65.8 nM | 
10 | O=C[C@H](C[C@@H]1CCNC1=O)NC(=O)[C@@H]1C[C@@H](Cc2cccc(Cl)c2)CN1C(=O)c1cc2ccccc2[nH]1 [Compound 137, (2S,4R)-4-(3-Chlorobenzyl)-1-(1H-indole-2-carbonyl)-N—((S)-1-oxo-3-((S)-2-oxopyrrolidin-3-yl)propan-2-yl)pyrrolidine-2-carboxamide] | 478 nM | 1260 nM | 262 nM | 36300 nM | 6560 nM | 1420 nM | 1520 nM | 
11 | CC1(C)[C@@H]2[C@@H](C(=O)N[C@H](C=O)C[C@@H]3CCNC3=O)N(C(=O)c3cc4occc4[nH]3)C[C@@H]21 [Compound 78, (1R,2S,5S)-3-(4H-Furo[3,2-b]pyrrole-5-carbonyl)-6,6-dimethyl-N—((S)-1-oxo-3-((S)-2-oxopyrrolidin-3-yl)propan-2-yl)-3-azabicyclo[3.1.0]hexane-2-carboxamide] | 33.3 nM | 37.4 nM | 51.1 nM | 479 nM | 81.3 nM | 66.9 nM | 86.8 nM | 
12 | CC1(C)[C@@H]2[C@@H](C(=O)N[C@H](C=O)C[C@@H]3CCNC3=O)N(C(=O)CN3CCCCCC3)C[C@@H]21 [Compound 55, (1R,2S,5S)-3-(2-(Azepan-1-yl)acetyl)-6,6-dimethyl-N—((S)-1-oxo-3-((S)-2-oxopyrrolidin-3-yl)propan-2-yl)-3-azabicyclo[3.1.0]hexane-2-carboxamide] | 25.5 nM | 39.3 nM | 54.8 nM | 317 nM | 70.2 nM | 81 nM | 74.6 nM | 
13 | CC1(C)[C@@H]2[C@@H](C(=O)N[C@H](C=O)C[C@@H]3CCNC3=O)N(C(=O)c3cc4c(F)ccc(F)c4[nH]3)C[C@@H]21 [Compound 13, (1R,2S,5S)-3-(4,7-difluoro-1H-indole-2-carbonyl)-6,6-dimethyl-N—((S)-1-oxo-3-((S)-2-oxopyrrolidin-3-yl)propan-2-yl)-3-azabicyclo[3.1.0]hexane-2-carboxamide] | 14 nM | 48.1 nM | 38.2 nM | 372 nM | 76.3 nM | 69 nM | 37.7 nM | 
14 | Cn1c(C(=O)N2C[C@H]3[C@@H]([C@H]2C(=O)N[C@H](C=O)C[C@@H]2CCNC2=O)C3(C)C)cc2cc(Cl)ccc21 [Compound 90, (1R,2S,5S)-3-(5-Chloro-1-methyl-1H-indole-2-carbonyl)-6,6-dimethyl-N—((S)-1-oxo-3-((S)-2-oxopyrrolidin-3-yl)propan-2-yl)-3-azabicyclo[3.1.0]hexane-2-carboxamide] | 43.6 nM | 60.5 nM | 48 nM | 655 nM | 202 nM | 130 nM | 79.4 nM | 
15 | CC1(C)[C@@H]2[C@@H](C(=O)N[C@H](C=O)C[C@@H]3CCNC3=O)N(C(=O)C3(c4ccccc4)CC3)C[C@@H]21 [Compound 1, (1R,2S,5S)-6,6-dimethyl-N—((S)-1-oxo-3-((S)-2-oxopyrrolidin-3-yl)propan-2-yl)-3-(1-phenylcyclopropanecarbonyl)-3-azabicyclo[3.1.0]hexane-2-carboxamide] | 9.53 nM | 32.4 nM | 11.4 nM | 129 nM | 73.7 nM | 28.4 nM | 17.3 nM | 
16 | CC1(C)[C@@H]2[C@@H](C(=O)N[C@H](C=O)C[C@@H]3CCNC3=O)N(C(=O)c3cc4cccc(F)c4[nH]3)C[C@@H]21 [Compound 6, (1R,2S,5S)-3-(7-fluoro-1H-indole-2-carbonyl)-6,6-dimethyl-N—((S)-1-oxo-3-((S)-2-oxopyrrolidin-3-yl)propan-2-yl)-3-azabicyclo[3.1.0]hexane-2-carboxamide] | 10.8 nM | 31.1 nM | 25.1 nM | 168 nM | 38.3 nM | 38.8 nM | 19.5 nM | 
